{
  "source": "ChEMBL document CHEMBL1123112",
  "about": "“A new generation of phosphodiesterase inhibitors: multiple molecular forms of phosphodiesterase and the potential for drug selectivity” (J Med Chem, 1985)",
  "key": {"[1]": {"biological_target": "T1, cGMP-dependent 3',5'-cyclic phosphodiesterase (Homo sapiens, UniProt O00408)", "T1 sequence (O00408 whole entry)": "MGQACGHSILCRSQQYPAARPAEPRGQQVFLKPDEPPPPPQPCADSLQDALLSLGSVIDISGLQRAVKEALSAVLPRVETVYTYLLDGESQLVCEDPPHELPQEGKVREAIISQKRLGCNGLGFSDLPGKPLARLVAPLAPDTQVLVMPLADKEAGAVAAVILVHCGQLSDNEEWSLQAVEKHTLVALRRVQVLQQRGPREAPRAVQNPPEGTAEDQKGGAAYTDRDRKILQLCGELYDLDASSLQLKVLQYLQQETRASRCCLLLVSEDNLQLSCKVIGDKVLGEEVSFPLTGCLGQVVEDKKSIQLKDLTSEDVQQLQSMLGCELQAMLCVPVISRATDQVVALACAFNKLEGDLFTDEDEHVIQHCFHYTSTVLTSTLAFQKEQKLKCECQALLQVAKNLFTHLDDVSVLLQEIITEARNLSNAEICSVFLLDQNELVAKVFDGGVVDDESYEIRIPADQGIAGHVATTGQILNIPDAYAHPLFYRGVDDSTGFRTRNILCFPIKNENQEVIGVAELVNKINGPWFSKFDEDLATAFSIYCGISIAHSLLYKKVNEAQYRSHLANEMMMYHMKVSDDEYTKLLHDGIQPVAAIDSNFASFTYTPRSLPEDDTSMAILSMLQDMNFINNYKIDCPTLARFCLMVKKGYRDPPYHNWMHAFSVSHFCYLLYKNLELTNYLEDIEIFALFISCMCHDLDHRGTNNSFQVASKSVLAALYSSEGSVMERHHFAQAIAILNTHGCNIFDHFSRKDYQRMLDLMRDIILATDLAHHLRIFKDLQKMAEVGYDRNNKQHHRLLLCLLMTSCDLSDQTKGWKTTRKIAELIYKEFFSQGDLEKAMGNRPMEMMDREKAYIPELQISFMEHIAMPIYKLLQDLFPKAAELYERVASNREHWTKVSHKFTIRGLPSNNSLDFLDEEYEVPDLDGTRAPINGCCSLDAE", "experiment": "Inhibition of cyclic GMP sensitive phosphodiesterase PDE 2 of human lung"}, "Phosphodiesterase 1 [2]": {"biological_target": "T2, Phosphodiesterase 1 (Homo sapiens, UniProt P54750+Q01064+Q14123)", "experiment": "Inhibition of [Ca(2+)]/calmodulin dependent phosphodiesterase PDE 1 of human lung", "assay_type": "protein assay"}, "[3]": {"biological_target": "T1, cGMP-dependent 3',5'-cyclic phosphodiesterase", "experiment": "Inhibition of cyclic GMP sensitive phosphodiesterase PDE 2 of guinea pig ventricle", "design": "species or system Cavia porcellus", "settings": "target entry is the homologue from another species"}, "Phosphodiesterase 1 [4]": {"biological_target": "T2, Phosphodiesterase 1", "experiment": "Inhibition of [Ca(2+)]/calmodulin dependent phosphodiesterase PDE 1 of guinea pig ventricle", "assay_type": "protein assay, Cavia porcellus", "settings": "target entry is the homologue from another species"}, "Phosphodiesterase 3 [5]": {"biological_target": "T3, Phosphodiesterase 3 (Homo sapiens, UniProt Q14432+Q13370)", "experiment": "Inhibition of low Km cyclic cAMP phosphodiesterase PDE III of guinea pig ventricle", "assay_type": "protein assay, Cavia porcellus", "settings": "target entry is the homologue from another species"}, "Phosphodiesterase 1 [6]": {"biological_target": "T2, Phosphodiesterase 1", "experiment": "Binding affinity for [Ca(2+)]/calmodulin dependent phosphodiesterase PDE 1 of sheep lung", "assay_type": "protein assay, Ovis aries", "settings": "target entry is the homologue from another species"}, "Phosphodiesterase 3 [7]": {"biological_target": "T3, Phosphodiesterase 3", "experiment": "Binding affinity for low Km cAMP phosphodiesterase PDE III of sheep lung", "assay_type": "protein assay, Ovis aries", "settings": "target entry is the homologue from another species"}, "Phosphodiesterase 1 [8]": {"biological_target": "T2, Phosphodiesterase 1", "experiment": "Inhibition of [Ca(2+)]/calmodulin dependent phosphodiesterase PDE 1 of rabbit renal cortex", "settings": "Oryctolagus cuniculus; target entry is the homologue from another species"}, "Phosphodiesterase 1 [9]": {"biological_target": "T2, Phosphodiesterase 1", "experiment": "Binding affinity for [Ca(2+)]/calmodulin dependent phosphodiesterase PDE 1 of human brain"}, "Phosphodiesterase 3 [10]": {"biological_target": "T3, Phosphodiesterase 3", "experiment": "Binding affinity for low Km cAMP phosphodiesterase PDE III of human platelets"}, "Phosphodiesterase 1 [11]": {"biological_target": "T2, Phosphodiesterase 1", "experiment": "Inhibition of [Ca(2+)]/calmodulin dependent phosphodiesterase PDE 1 of human brain"}, "Phosphodiesterase 3 [12]": {"biological_target": "T3, Phosphodiesterase 3", "experiment": "Inhibition of low Km cAMP phosphodiesterase PDE III of human platelets"}, "[13]": {"biological_target": "T1, cGMP-dependent 3',5'-cyclic phosphodiesterase", "experiment": "Percent inhibition of cyclic GMP sensitive phosphodiesterase PDE 2 of guinea pig ventricle", "settings": "Cavia porcellus; target entry is the homologue from another species; concentration not given here"}, "Phosphodiesterase 1 [14]": {"biological_target": "T2, Phosphodiesterase 1", "experiment": "Percent inhibition of [Ca(2+)]/calmodulin dependent phosphodiesterase PDE 1 of guinea pig ventricle", "assay_type": "protein assay", "settings": "Cavia porcellus; target entry is the homologue from another species; concentration not given here"}, "Phosphodiesterase 3 [15]": {"biological_target": "T3, Phosphodiesterase 3", "experiment": "Percent inhibition of low Km cyclic cAMP phosphodiesterase PDE III of guinea pig ventricle", "assay_type": "protein assay", "settings": "Cavia porcellus; target entry is the homologue from another species; concentration not given here"}, "Phosphodiesterase 3 [16]": {"biological_target": "T3, Phosphodiesterase 3", "experiment": "Inhibition of low Km cyclic AMP phosphodiesterase PDE III of canine ventricle", "assay_type": "protein assay, Canis lupus familiaris", "settings": "target entry is the homologue from another species"}, "Phosphodiesterase 3 [17]": {"biological_target": "T3, Phosphodiesterase 3", "experiment": "Binding affinity for low Km cAMP phosphodiesterase PDE III of sheep lung", "settings": "target entry is the homologue from another species"}},
  "data": [
    {"smiles": "CCCCc1cc2c(=O)cc(C(=O)O)[nH]c2c2c(=O)cc(C(=O)O)[nH]c12", "note": "[BUFROLIN]", "values": [
      {"measurement": "IC50", "setting": "[1]", "result": 80, "unit": "µM"},
      {"measurement": "IC50", "setting": "Phosphodiesterase 1 [2]", "result": 16, "unit": "µM"}
    ]},
    {"smiles": "COc1ccc(-c2nc3ccc[nH]c-3n2)c(OC)c1", "values": [
      {"measurement": "IC50", "setting": "[3]", "result": 57, "unit": "µM"},
      {"measurement": "IC50", "setting": "Phosphodiesterase 1 [4]", "result": 265, "unit": "µM"},
      {"measurement": "IC50", "setting": "Phosphodiesterase 3 [5]", "result": 390, "unit": "µM"}
    ]},
    {"smiles": "CCOC(=O)c1cnc2c(cnn2CC)c1NN=C(C)C", "note": "[ETAZOLATE]", "values": [
      {"measurement": "Ki", "setting": "Phosphodiesterase 1 [6]", "result": 60, "unit": "µM"},
      {"measurement": "Ki", "setting": "Phosphodiesterase 3 [7]", "result": 12, "unit": "µM"}
    ]},
    {"smiles": "COc1ccc(C2CNC(=O)C2)cc1OC1CCCC1", "note": "(centres undefined)", "values": [
      {"measurement": "IC25", "setting": "Phosphodiesterase 1 [8]", "result": 1400, "unit": "µM"}
    ]},
    {"smiles": "CN(C(=O)CCCOc1ccc2[nH]c(=O)ccc2c1)C1CCCCC1", "note": "[CILOSTAMIDE]", "values": [
      {"measurement": "Ki", "setting": "Phosphodiesterase 1 [9]", "result": 22, "unit": "µM"}
    ]},
    {"smiles": "CSc1ccc(C(=O)c2[nH]c(=O)[nH]c2C)cc1", "note": "[ENOXIMONE]", "values": [
      {"measurement": "IC50", "setting": "[3]", "result": 520, "unit": "µM"},
      {"measurement": "IC50", "setting": "Phosphodiesterase 1 [4]", "result": "> 1000", "unit": "µM"}
    ]},
    {"smiles": "CCOC(=O)c1c(C)cc2c(CO)n[nH]c(=O)c2c1C", "note": "[OXAGRELATE]", "values": [
      {"measurement": "Ki", "setting": "Phosphodiesterase 1 [9]", "result": 10, "unit": "µM"},
      {"measurement": "Ki", "setting": "Phosphodiesterase 3 [10]", "result": 1.4, "unit": "µM"}
    ]},
    {"smiles": "CCOC(CN1CCN(S(=O)(=O)c2ccc3ncnc(N(C)c4ccccc4)c3c2)CC1)c1ccccc1", "note": "(centres undefined)", "values": [
      {"measurement": "Ki", "setting": "Phosphodiesterase 1 [9]", "result": 4, "unit": "µM"},
      {"measurement": "Ki", "setting": "Phosphodiesterase 3 [10]", "result": 270, "unit": "µM"}
    ]},
    {"smiles": "OCCN(CCO)c1nc(N2CCCCC2)c2nc(N(CCO)CCO)nc(N3CCCCC3)c2n1", "note": "[DIPYRIDAMOLE]", "values": [
      {"measurement": "IC50", "setting": "Phosphodiesterase 3 [5]", "result": 43, "unit": "µM"}
    ]},
    {"smiles": "Clc1cccc(Nc2nnc(-c3ccccc3)c3ccccc23)c1", "values": [
      {"measurement": "Ki", "setting": "Phosphodiesterase 3 [10]", "result": 16, "unit": "µM"}
    ]},
    {"smiles": "COc1cc([S+](C)[O-])ccc1-c1nc2ncccc2[nH]1", "note": "(centres undefined) [SULMAZOLE]", "values": [
      {"measurement": "IC50", "setting": "[3]", "result": 200, "unit": "µM"}
    ]},
    {"smiles": "CCC(O)CN(C(=O)CCCCOc1ccc2c(c1)CCC(=O)N2)c1ccccc1", "note": "(centres undefined)", "values": [
      {"measurement": "IC50", "setting": "Phosphodiesterase 1 [11]", "result": "> 1000", "unit": "µM"},
      {"measurement": "IC50", "setting": "Phosphodiesterase 3 [12]", "result": 0.073, "unit": "µM"}
    ]},
    {"smiles": "Nc1cc(-c2ccncc2)c[nH]c1=O", "note": "[INAMRINONE]", "values": [
      {"measurement": "IC50", "setting": "[3]", "result": 700, "unit": "µM"},
      {"measurement": "IC50", "setting": "Phosphodiesterase 1 [4]", "result": "> 1000", "unit": "µM"}
    ]},
    {"smiles": "CC(Cl)C(=O)Nc1ccc(C2=NNC(=O)CC2C)cc1", "note": "(centres undefined)", "values": [
      {"measurement": "inhibition", "setting": "[13]", "result": 0, "unit": "%"},
      {"measurement": "inhibition", "setting": "Phosphodiesterase 1 [14]", "result": 5, "unit": "%"},
      {"measurement": "inhibition", "setting": "Phosphodiesterase 3 [15]", "result": 92, "unit": "%"}
    ]},
    {"smiles": "O=C1CCc2cc(OCCCCc3nnnn3C3CCCCC3)ccc2N1", "note": "[CILOSTAZOL]", "values": [
      {"measurement": "IC50", "setting": "Phosphodiesterase 1 [11]", "result": "> 1000", "unit": "µM"},
      {"measurement": "IC50", "setting": "Phosphodiesterase 3 [12]", "result": 0.19, "unit": "µM"}
    ]},
    {"smiles": "CCc1[nH]c(=O)[nH]c1C(=O)c1ccncc1", "note": "[PIROXIMONE]", "values": [
      {"measurement": "IC50", "setting": "Phosphodiesterase 3 [16]", "result": 8.6, "unit": "µM"}
    ]},
    {"smiles": "CCCCOc1cc(CC2CNC(=O)N2)ccc1OC", "note": "(centres undefined) [RO-201724]", "values": [
      {"measurement": "IC50", "setting": "[1]", "result": 390, "unit": "µM"},
      {"measurement": "IC50", "setting": "Phosphodiesterase 1 [2]", "result": 250, "unit": "µM"}
    ]},
    {"smiles": "CCCc1nc(C)cn2c(NC(C)=O)nnc12", "values": [
      {"measurement": "Ki", "setting": "Phosphodiesterase 1 [6]", "result": 717, "unit": "µM"},
      {"measurement": "Ki", "setting": "Phosphodiesterase 3 [17]", "result": 217, "unit": "µM"}
    ]},
    {"smiles": "Cn1c(=O)c2nc[nH]c2n(C)c1=O.O", "note": "[THEOPHYLLINE]", "values": [
      {"measurement": "IC50", "setting": "[3]", "result": 210, "unit": "µM"},
      {"measurement": "IC50", "setting": "Phosphodiesterase 1 [4]", "result": 320, "unit": "µM"}
    ]},
    {"smiles": "CC1CC(=O)NN=C1c1ccc2c(c1)CCC(=O)N2C", "note": "(centres undefined)", "values": [
      {"measurement": "inhibition", "setting": "[13]", "result": 6, "unit": "%"},
      {"measurement": "inhibition", "setting": "Phosphodiesterase 1 [14]", "result": 15, "unit": "%"},
      {"measurement": "inhibition", "setting": "Phosphodiesterase 3 [15]", "result": 97, "unit": "%"}
    ]},
    {"smiles": "CC(C)Cn1c(=O)n(C)c(=O)c2nc[nH]c21", "note": "[ISOBUTYLMETHYLXANTHINE]", "values": [
      {"measurement": "IC50", "setting": "[1]", "result": 12, "unit": "µM"},
      {"measurement": "IC50", "setting": "Phosphodiesterase 1 [2]", "result": 3.4, "unit": "µM"}
    ]}
  ]
}
